Measurements from patent US20230365564A1, “COCRYSTALS OF AN ADENOSINE A2B RECEPTOR ANTAGONIST” (Teon Therapeutics, Inc., priority 2020, published 2023).

Legend:
[1] = Bulk stability (HPLC and XRPD); assay type: physicochemical
Description: The bulk stability of the free form and the cocrystals was determined by exposing the compounds to conditions of temperature, humidity and/or radiation flux and evaluating the compound by HPLC and XRPD.

[2] = Dynamic vapor sorption (DVS) hygroscopicity; assay type: physicochemical; conditions: for water absorption (DVS): at 95% RH; for water absorption (DVS) / form change after DVS: 25° C.; for form change after DVS: humidity cycle 40-0-95-0-40% RH
Description: Dynamic vapor sorption (DVS) was performed using an Advantage instrument at a total gas flow rate of 200 sccm, an oven temperature of 25° C. with water as the solvent. The humidity cycle was 40-0-95-0-40% RH at step intervals of 10% RH with an equilibration of 0.002 dm/dt (%/min), a maximum, dm/dt stability duration of 60 min, and a maximum dm/dt stage time of 360 min.

[3] = XRPD form change after standing in aqueous media at 37° C.; assay type: physicochemical; conditions: for form change (XRPD) after equilibrating in the aqueous media: 24 hours at 37° C.
Description: X-ray powder diffraction (XRPD) was performed using a Bruker D8 Advance® instrument with a Lynxeye® XE T(1D mode) detector at an open angle of 2.94° in continuous scan mode using a Cu/K-α (λ−1.5418 Å) source. The diffraction patterns were obtain over a scan range from 3° to 40° with 0.02° steps, a step duration of 0.12, and a sample rotation speed of 15 rpm.
(§1) The kinetic solubility experiments were conducted for the free form and the three cocrystals in the following media: (1) pH 1.0 (0.1N) HCl solution, (2) pH 4.5 (50 mM) acetate buffer, (3) pH 6.8 (50 mM) phosphate buffer, (4) FeSSIF-v1 (Fed state stimulated intestinal fluid version 1) (pH 5.0), (5) FaSSIF-v1 (Fasted state stimulated intestinal fluid version 1) (pH 6.5), (6) SGF (Simulated gastric fluid) (pH 2.0), and (7) FaSSIF-v1/4% Soluplus®, and (8) SGF/4% Soluplus®.
(§2) After combining with the respective media at 37° C., the concentration of the free form or cocrystal and the XRPD was measured at 0.5 hours, 2 hours, and 24 hours.
The XRPD patterns shown in FIGS. 19-23 are associated with the aqueous media described in Table 1 and for the free form (Compound (1), FF), the benzenesulfonic acid cocrystal (BSA CC), the para-toluenesulfonic acid cocrystal (pTSA CC), and the fumaric acid cocrystal (FA CC).

[4] = Kinetic solubility (solubility-time profile) in biologically relevant fluids; assay type: physicochemical; conditions: for solubility-time profile: 0.5 h to 24 h; for solubility compared with the free form: several biologically relevant media; for solubility: 0.5 h, 2 h and 24 h
Description: The solubility-time profile of free form compound (1) and the three cocrystals was evaluated in different aqueous media.
as §1, §2

[5] = Aqueous solubility of compound (1); assay type: physicochemical; conditions: aqueous medium; substantially independent of pH over a relevant physiological range
[6] = Pharmacokinetics following peroral administration to dogs; parameters: species or system beagle dogs; conditions: dog, in vivo
Description: The pharmacokinetics of the fumaric acid cocrystal of Example 4 was evaluated following peroral administration to dogs.
Male beagle dogs were separated into two groups of three dogs.
[…] The dosing formulation consisted of 0.40 mg/mL of the fumaric acid cocrystal in 4% Soluplus® in simulated gastric fluid (SGF) at pH 2.0, as a homogeneous opaque suspension of fine particles.
[…] The dosing formulation consisted of 2 mg/mL of the fumaric acid cocrystal in 4% Soluplus® in simulated gastric fluid (SGF) at pH 2.0, as a homogeneous opaque suspension of fine particles.

[7] = 25° C./60% RH in an open vial, 2 weeks
[8] = 40° C./75% RH in an open vial, 2 weeks
[9] = 60° C. in a closed vial, 2 weeks
[10] = above 80% RH at 25° C. (then becomes)
[11] = pH 1.0 HCl, pH 4.5 acetate, pH 6.8 phosphate, FeSSIF-v1, FaSSIF-v1
[12] = SGF, FaSSIF-v1/4% Soluplus and SGF/4% Soluplus
[13] = oral, 5 mg/kg, 0.5% methylcellulose
[14] = po, 2 mg/kg peroral, fed male beagle dogs, 4% Soluplus in SGF pH 2.0
[15] = po, 10 mg/kg peroral, fed male beagle dogs, 4% Soluplus in SGF pH 2.0

| water adsorption ([2]; 25° C./80% RH) [wt %] | water adsorption ([2]; 25° C./95% RH) [wt %] | hygroscopicity (DVS) [2, 10] | water absorption (DVS) [2] [%] | hygroscopicity (DVS) ([2]; below 80% RH at 25° C.) | form change after DVS [2] | form change (XRPD) after equilibrating in the aqueous media [3, 11] | form change after solubility study [3, 12] | solubility-time profile ([4]; FaSSIF-v1/4% Soluplus, 37° C.) | solubility-time profile ([4]; SGF/4% Soluplus, 37° C.) | solubility compared with the free form [4] | SMILES | bulk stability ([1]; 1.2 million lux-hrs) | bulk stability [1, 7] | bulk stability [1, 8] | bulk stability [1, 9] | further results |
| --- | --- | --- | --- | --- | --- | --- | --- | --- | --- | --- | --- | --- | --- | --- | --- | --- |
| 1.1 | 1.1 | slightly hygroscopic | 11 | only slightly hygroscopic | No form change | completely dissociated to the free form | dissociated to free form | first increased and then decreased | first increased and then decreased | higher solubility than the free form | CCCn1c(=O)c2[nH]c(-c3cnn(Cc4cccc(C(F)(F)F)c4)c3)nc2n(CC)c1=O.Cc1ccc(S(=O)(=O)O)cc1 [para-toluenesulfonic acid cocrystal, 3-ethyl-1-propyl-8-(1-(3-(trifluoromethyl)benzyl)-1H-pyrazol-4-yl)-3,7-dihydro-1H-purine-2,6-dione and para-toluenesulfonic acid] | did not exhibit any significant degradation | did not exhibit any significant degradation | did not exhibit any significant degradation | did not exhibit any significant degradation |  |
|  |  |  |  |  |  | did not show a change in form | no form change | increased over time | increased over time |  | CCCn1c(=O)c2[nH]c(-c3cnn(Cc4cccc(C(F)(F)F)c4)c3)nc2n(CC)c1=O [Compound (1), 3-Ethyl-1-propyl-8-(1-(3-(trifluoromethyl)benzyl)-1H-pyrazol-4-yl)-3,7-dihydro-1H-purine-2,6-dione] | did not exhibit any significant degradation | did not exhibit any significant degradation | did not exhibit any significant degradation | did not exhibit any significant degradation | solubility [5]: < 1 µg/mL; Cmax [6, 13]: 81 ng/mL; Tmax [6, 13]: 2 h; half-life [6, 13]: 63 h; AUC(0-t) ([6]; oral, 5 mg/kg, 0.5% methylcellulose, read-out: AUC0-24): 796 ng·h/mL; solubility ([4]; FaSSIF-v1, 37° C.): below the level of quantification (LOQ); solubility ([4]; FeSSIF-v1, 37° C.): below the level of quantification (LOQ); solubility-time profile ([4]; SGF, 37° C.): maintained in the same magnitude; solubility ([4]; pH 1.0 HCl solution, 37° C.): below the level of quantification (LOQ); solubility ([4]; pH 4.5 acetate buffer, 37° C.): below the level of quantification (LOQ); solubility ([4]; pH 6.8 phosphate buffer, 37° C.): below the level of quantification (LOQ) |
| 1.7 | 4.0 |  | 4 |  | No form change |  |  |  |  | higher solubility than the free form | CCCn1c(=O)c2[nH]c(-c3cnn(Cc4cccc(C(F)(F)F)c4)c3)nc2n(CC)c1=O.O=C(O)/C=C/C(=O)O [fumaric acid cocrystal, 3-ethyl-1-propyl-8-(1-(3-(trifluoromethyl)benzyl)-1H-pyrazol-4-yl)-3,7-dihydro-1H-purine-2,6-dione and fumaric acid] | did not exhibit any significant degradation | did not exhibit any significant degradation | did not exhibit any significant degradation | did not exhibit any significant degradation | hygroscopicity (DVS) ([2]; above 90% RH at 25° C. (then becomes)): hygroscopic; hygroscopicity (DVS) ([2]; below 90% RH at 25° C.): slightly hygroscopic; form change (XRPD) after equilibrating in the aqueous media ([3]; FaSSIF-v1): only partially dissociated to the free form; form change (XRPD) after equilibrating in the aqueous media ([3]; FeSSIF-v1): only partially dissociated to the free form; form change (XRPD) after equilibrating in the aqueous media ([3]; pH 1.0 HCl solution): did not show any form change; form change (XRPD) after equilibrating in the aqueous media ([3]; pH 4.5 acetate buffer): only partially dissociated to the free form; form change after solubility study ([3]; FaSSIF-v1/4% Soluplus): converted to a mixture of the cocrystal and amorphous state (free form); form change after solubility study ([3]; SGF): dissociated to free form; form change after solubility study ([3]; SGF/4% Soluplus): converted to a mixture of the cocrystal and amorphous state (free form); AUC(0-inf) [6, 14]: 2220 ng·h/mL; Cmax [6, 14]: 148 ng/mL; Tmax [6, 14]: 4 h; half-life [6, 14]: 14.8 h; AUC(0-inf) [6, 15]: 21100 ng·h/mL; Cmax [6, 15]: 976 ng/mL; Tmax [6, 15]: 10.7 h; half-life [6, 15]: 6.5 h |
| 2.2 | 65 | highly hygroscopic | 65 | only slightly hygroscopic | No form change | completely dissociated to the free form | dissociated to free form | increased over time | increased over time | higher solubility than the free form | CCCn1c(=O)c2[nH]c(-c3cnn(Cc4cccc(C(F)(F)F)c4)c3)nc2n(CC)c1=O.O=S(=O)(O)c1ccccc1 [benzenesulfonic acid cocrystal, 3-ethyl-1-propyl-8-(1-(3-(trifluoromethyl)benzyl)-1H-pyrazol-4-yl)-3,7-dihydro-1H-purine-2,6-dione and benzenesulfonic acid] | stable | stable | began to show some disassociation | stable |  |
